Measurements as given in ChEMBL document CHEMBL1126157, “QSAR analyses of the substituted indanone and benzylpiperidine rings of a series of indanone-benzylpiperidine inhibitors of acetylcholinesterase” (J Med Chem, 1992).

Experiments:
Acetylcholinesterase [1] = biological target: T1, Acetylcholinesterase (Homo sapiens, UniProt P22303)
Description: Inhibition of acetylcholinesterase.

Acetylcholinesterase [2] = biological target: T1, Acetylcholinesterase; remark: listed apart in the source
Acetylcholinesterase [3] = biological target: T1, Acetylcholinesterase; remark: listed apart in the source
Acetylcholinesterase [4] = biological target: T1, Acetylcholinesterase; remark: listed apart in the source
Description: Inhibition of acetylcholinesterase.

T1 sequence (P22303 whole entry): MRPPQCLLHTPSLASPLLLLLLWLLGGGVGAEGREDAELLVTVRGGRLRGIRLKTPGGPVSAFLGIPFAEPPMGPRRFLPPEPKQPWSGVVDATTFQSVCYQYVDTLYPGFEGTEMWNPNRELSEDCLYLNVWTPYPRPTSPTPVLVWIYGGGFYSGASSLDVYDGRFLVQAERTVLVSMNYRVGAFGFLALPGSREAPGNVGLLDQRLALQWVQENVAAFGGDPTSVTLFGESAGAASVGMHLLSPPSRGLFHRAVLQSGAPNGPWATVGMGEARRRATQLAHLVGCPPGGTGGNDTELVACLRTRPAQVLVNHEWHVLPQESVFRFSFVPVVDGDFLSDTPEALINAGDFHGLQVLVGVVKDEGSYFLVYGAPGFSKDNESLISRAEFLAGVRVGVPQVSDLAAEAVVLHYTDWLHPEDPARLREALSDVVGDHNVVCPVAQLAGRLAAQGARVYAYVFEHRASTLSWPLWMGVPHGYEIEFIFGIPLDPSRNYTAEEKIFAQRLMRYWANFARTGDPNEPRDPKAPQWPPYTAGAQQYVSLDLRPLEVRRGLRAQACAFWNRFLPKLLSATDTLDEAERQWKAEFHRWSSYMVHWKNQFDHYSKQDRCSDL

| Compound | IC50 (Acetylcholinesterase [1]) | IC50 (Acetylcholinesterase [2]) | IC50 (Acetylcholinesterase [3]) | IC50 (Acetylcholinesterase [4]) |
| --- | --- | --- | --- | --- |
| Cc1ccc2c(c1)C(=O)C(C)C2 (stereo not given) | 69.2 nM | 380 nM |  |  |
| CCOc1cc2c(cc1OCC)C(=O)C(C)C2 (stereo not given) | 6.31 nM | 380 nM |  |  |
| Cc1ccc(O)cc1 [p-CRESOL] |  |  | 4900 nM | 1.82 nM |
| COc1ccc2c(c1)C(=O)C(C)C2 (stereo not given) | 81.3 nM | 380 nM |  |  |
| Cc1ccc([N+](=O)[O-])cc1 [4-NITROTOLUENE] |  |  | 4900 nM | 100 nM |
| COc1cc(C)cc(OC)c1OC |  |  | 4900 nM | 4900 nM |
| Cc1cccc2c1CC(C)C2=O (stereo not given) | 7.08 nM | 380 nM |  |  |
| COc1cc2c(cc1OC)C(=O)C(C)C2 (stereo not given) | 5.25 nM | 380 nM |  |  |
| Cc1ccccc1 [TOLUENE] |  |  | 4900 nM | 5.25 nM |
| COc1cc2c(c(OC)c1OC)C(=O)C(C)C2 (stereo not given) | 13.2 nM | 380 nM |  |  |
| COc1cc2c(c(OC)c1)C(=O)C(C)C2 (stereo not given) | 25.1 nM | 380 nM |  |  |
| COc1cc2c(cc1O)C(=O)C(C)C2 (stereo not given) | 1.32 nM | 380 nM |  |  |
| CC1Cc2ccc(F)cc2C1=O (stereo not given) | 200 nM | 380 nM |  |  |
| Cc1cccc(C)c1 [M-XYLENE] |  |  | 4900 nM | 2 nM |
| COc1ccc2c(c1OC)C(=O)C(C)C2 (stereo not given) | 87.1 nM | 380 nM |  |  |
| COc1cccc2c1CC(C)C2=O (stereo not given) | 12 nM | 380 nM |  |  |
| Cc1ccccc1F |  |  | 4900 nM | 9.55 nM |
| Cc1ccc(F)cc1 |  |  | 4900 nM | 9.55 nM |
| Cc1cccc(F)c1 |  |  | 4900 nM | 1 nM |
| COc1ccc2c(c1OC)CC(C)C2=O (stereo not given) | 20 nM | 380 nM |  |  |
| CC1Cc2ccccc2C1=O (stereo not given) | 148 nM | 380 nM |  |  |
| COc1cc2c(cc1O)CC(C)C2=O (stereo not given) | 380 nM | 380 nM |  |  |
| COc1ccc(OC)c2c1CC(C)C2=O (stereo not given) | 36.3 nM | 380 nM |  |  |
| Cc1ccc(C)cc1 [P-XYLENE] |  |  | 4900 nM | 39.8 nM |
| COc1ccc(C)cc1OC |  |  | 4900 nM | 3980 nM |
| CC1Cc2cc3c(cc2C1=O)OCO3 (stereo not given) | 22.9 nM | 380 nM |  |  |
| COc1cc2c(cc1OC(C)C)CC(C)C2=O (stereo not given) | 8.91 nM | 380 nM |  |  |
| COc1cccc(C)c1 |  |  | 4900 nM | 219 nM |
| Cc1cccc(O)c1 [METACRESOL] |  |  | 4900 nM | 45.7 nM |
| Cc1ccccc1C [O-XYLENE] |  |  | 4900 nM | 10 nM |
